Data reported in PMC6792352, “Limited Chemical Structural Diversity Found to Modulate Thyroid Hormone Receptor in the Tox21 Chemical Library” (Environmental Health Perspectives, 2019).
Where a name gives a salt, the structure may show the parent alone.

Assay: in vitro
Settings: rat, gh3-tre-luc cells

Compound | CC50 at 24 h (AC50 (uM) modified / 1000) [µM] | CC50 at 24 h (AC50 (uM) modified / 1000, Tox21_110001=Tox21_201053, viability, 1 nM T3 present, 24 h) [µM]
c1ccc(OCc2ccc(CCCN3CCOCC3)cc2)cc1 [Fomocaine] | 16.1 | 
O=P(O)(O)OC(Cn1cncn1)(Cn1cncn1)c1ccc(F)cc1F [Fosfluconazole] | > 50 | 
CC(=O)CN(CC(C)=O)N=O [N-Nitrosobis(2-oxopropyl)amine] | > 90 | 
CC(Oc1cccc(Cl)c1)C(=O)O (centres unmarked) [Cloprop] | > 90 | 
CCOC(=O)C1=C(C)NC(C)=C(C(=O)OCC)C1c1ccccc1/C=C/C(=O)OC(C)(C)C [Lacidipine] | 11.2 | 
CCCC(=O)O[C@]1(C(=O)CO)CC[C@H]2[C@@H]3CCC4=CC(=O)CC[C@]4(C)[C@H]3[C@@H](O)C[C@@]21C [Hydrocortisone 17-butyrate] | > 50 | 
O=Cc1ccc(C(=O)O)cc1 [4-Carboxybenzaldehyde] | > 90 | 
O=C(O)CCCc1c[nH]c2ccccc12 [Indole-3-butyric acid] | > 90 | 
COC(=O)c1ccc(C=O)cc1 [Methyl 4-formylbenzoate] | > 90 | 
CN1CCN(CCCN2c3ccccc3Sc3ccc(C(F)(F)F)cc32)CC1 [Fluoperazine dihydrochloride] | 7.86 | 
CN(C)C/C=C(/c1ccc(Br)cc1)c1cccnc1 [Zimeldine dihydrochloride hydrate] | 35.2 | 
C[N+]12CCC(CC1)C(OC(=O)C(O)(c1ccccc1)c1ccccc1)C2 (centres unmarked) [Clidinium bromide] | > 20 | 
C=C1/C(=C\C=C2/CCC[C@]3(C)[C@@H]([C@H](C)CCCC(C)(C)O)CC[C@@H]23)C[C@@H](O)C[C@@H]1O [Calcitriol] | 20.1 | 
CCOC(=O)CCl [Ethyl chloroacetate] |  | > 90
Cc1nn(-c2cc(NS(C)(=O)=O)c(Cl)cc2Cl)c(=O)n1C(F)F [Sulfentrazone] | > 90 | 
Oc1ccc2c(c1)-c1ccccc1C2 [3-Hydroxyfluorene] | > 90 | 
C=CCCCCCCCCCC [1-Dodecene] | > 90 | 
ClC1=C(Cl)C1(Cl)Cl [Tetrachlorocyclopropene] | > 90 | 
CNC[C@H](O)c1cccc(O)c1 [Phenylephrine hydrochloride] | > 90 | 
Fc1ccc(Oc2ccnc3cc(Cl)cc(Cl)c23)cc1 [Quinoxyfen] | 74.9 | 
CN1[C@@H]2CC[C@H]1CC(OC(c1ccccc1)c1ccccc1)C2 (some centres unmarked) [Benztropine methylsulfonate] | 20.1 | 

Compound | CC50 at 24 h (AC50 (uM) modified / 1000) [µM] | CC50 at 24 h (AC50 (uM) modified / 1000, Tox21_110001=Tox21_201053, viability, 1 nM T3 present, 24 h) [µM]
CC(=O)OCCC(C)CC(C)(C)C (centres unmarked) [3,5,5-Trimethylhexyl acetate] | > 90 | 
CC(C)C1CCC(Cc2ccc(Cl)cc2)C1(O)Cn1cncn1 (centres unmarked) [Ipconazole] | 41.7 | 
CC(=O)Nc1ccc(S(=O)(=O)Nc2cc(C)on2)cc1 [N-Acetyl sulfamethoxazole] | > 50 | 
O=C1c2cccc(O)c2C(=O)c2c(O)cccc21 [Danthron] | > 90 | 
O=C(OCc1ccccc1)c1ccc(O)cc1 [Benzylparaben] | > 90 | 
O=[N+]([O-])c1cccc(S(=O)(=O)NCCNS(=O)(=O)c2cccc([N+](=O)[O-])c2)c1 [Dinsed] | > 50 | 
Cc1[nH]cnc1CN1CCc2c(c3ccccc3n2C)C1=O [Alosetron hydrochloride] | > 50 | 
Nc1ccccc1O [2-Aminophenol] | 40.6 | 
Cc1nnc2n1-c1sc(Br)cc1C(c1ccccc1Cl)=NC2 [Brotizolam] | 32.6 | 
COCCOc1cc2cc(C(=O)NC3CCN(C(C)C)CC3)n(CC(=O)Nc3ccc(Cl)cn3)c2cn1 [SAR377142] | 71.7 | 
O=C(c1ccc(F)cc1)C1CCN(CCn2c(=O)[nH]c3ccccc3c2=O)CC1 [Ketanserin] | > 50 | 
CCC(C)Nc1c([N+](=O)[O-])cc(C(C)(C)C)cc1[N+](=O)[O-] (centres unmarked) [Butralin] | 68.1 | 
FC(F)(F)C(F)(F)C(F)(F)C(F)(F)CCI [1,1,1,2,2,3,3,4,4-Nonafluoro-6-iodohexane] | > 40 | 
COc1ccc(CCN(C)CCCC(C#N)(c2ccc(OC)c(OC)c2)C(C)C)cc1OC (centres unmarked) [Verapamil hydrochloride] | 24.5 | 
COc1cc2c(cc1OC)-c1cc3ccc(OC)c(OC)c3c[n+]1CC2 [Palmatine chloride hydrate] | > 90 | 
FC(F)C(F)(F)OCC(Cn1cncn1)c1ccc(Cl)cc1Cl (centres unmarked) [Tetraconazole] | > 90 | 
Cc1cccc(C)c1NC(=O)CC12CCCN1CCC2 [Pilsicainide] | > 50 | 
CCC(C)(C)C(=O)OC1=C(c2ccc(Cl)cc2Cl)C(=O)OC12CCCCC2 [Spirodiclofen] | > 90 | 
CN1COCN(Cc2cnc(Cl)s2)/C1=N/[N+](=O)[O-] [Thiamethoxam] | > 90 | 
CCOCCOCCOC(C)=O [2-(2-Ethoxyethoxy)ethyl acetate] | > 90 | 
